The values below come from publication PMC5540273, “Progress towards a public chemogenomic set for protein kinases and a call for contributions” (PLoS ONE, 2017).

Holding throughout (assay): KINOMEscan competition binding
Test [1] concerns the target T1, DCAMKL1 (Homo sapiens, UniProt O15075).
T1 sequence (O15075 1-740): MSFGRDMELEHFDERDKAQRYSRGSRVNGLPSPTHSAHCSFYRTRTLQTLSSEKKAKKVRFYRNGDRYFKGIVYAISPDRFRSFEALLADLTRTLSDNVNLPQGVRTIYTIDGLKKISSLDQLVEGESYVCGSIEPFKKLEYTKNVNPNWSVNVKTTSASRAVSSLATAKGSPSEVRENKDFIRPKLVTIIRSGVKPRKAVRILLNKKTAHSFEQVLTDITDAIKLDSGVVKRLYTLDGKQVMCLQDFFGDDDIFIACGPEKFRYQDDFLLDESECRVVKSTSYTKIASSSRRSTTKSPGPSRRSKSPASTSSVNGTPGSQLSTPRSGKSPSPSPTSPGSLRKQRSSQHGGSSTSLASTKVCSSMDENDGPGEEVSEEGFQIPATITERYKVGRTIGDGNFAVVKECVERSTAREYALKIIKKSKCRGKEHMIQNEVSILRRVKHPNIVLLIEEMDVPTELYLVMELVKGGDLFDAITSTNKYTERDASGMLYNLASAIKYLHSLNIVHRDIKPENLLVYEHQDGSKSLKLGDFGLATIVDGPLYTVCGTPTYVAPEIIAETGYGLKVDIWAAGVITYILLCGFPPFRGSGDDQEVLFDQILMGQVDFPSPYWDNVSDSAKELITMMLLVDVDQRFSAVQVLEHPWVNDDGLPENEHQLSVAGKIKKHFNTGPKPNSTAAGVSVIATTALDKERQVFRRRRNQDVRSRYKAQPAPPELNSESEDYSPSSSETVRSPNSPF
As to conditions: read-out: %Inh DCAMKL1.

Test [2] has as its target T2, CDKL2 (Homo sapiens, UniProt Q92772).
T2 sequence (Q92772 1-493): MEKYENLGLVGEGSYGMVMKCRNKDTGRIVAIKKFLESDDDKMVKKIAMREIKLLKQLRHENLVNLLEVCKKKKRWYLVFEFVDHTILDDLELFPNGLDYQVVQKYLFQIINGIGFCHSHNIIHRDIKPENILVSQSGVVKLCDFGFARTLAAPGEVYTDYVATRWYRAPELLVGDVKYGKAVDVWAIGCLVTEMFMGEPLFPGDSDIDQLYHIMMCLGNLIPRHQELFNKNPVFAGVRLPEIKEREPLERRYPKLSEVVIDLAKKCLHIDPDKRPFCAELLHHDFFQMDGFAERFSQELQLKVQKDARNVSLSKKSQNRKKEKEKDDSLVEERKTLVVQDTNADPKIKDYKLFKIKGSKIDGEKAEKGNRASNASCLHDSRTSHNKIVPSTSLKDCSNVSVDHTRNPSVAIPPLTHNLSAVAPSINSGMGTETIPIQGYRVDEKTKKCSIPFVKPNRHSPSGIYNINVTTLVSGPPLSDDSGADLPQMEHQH
As to conditions: read-out: %Inh CDKL2.

Test [3] concerns the target GRK4 (Homo sapiens, UniProt P32298). As to conditions: read-out: %Inh GRK4.
In test [4] the target is ADCK3 (Homo sapiens, UniProt Q8NI60). As to conditions: read-out: %Inh ADCK3.
Test [5] addresses T3, BMX (Homo sapiens, UniProt P51813).
T3 sequence (P51813 1-675): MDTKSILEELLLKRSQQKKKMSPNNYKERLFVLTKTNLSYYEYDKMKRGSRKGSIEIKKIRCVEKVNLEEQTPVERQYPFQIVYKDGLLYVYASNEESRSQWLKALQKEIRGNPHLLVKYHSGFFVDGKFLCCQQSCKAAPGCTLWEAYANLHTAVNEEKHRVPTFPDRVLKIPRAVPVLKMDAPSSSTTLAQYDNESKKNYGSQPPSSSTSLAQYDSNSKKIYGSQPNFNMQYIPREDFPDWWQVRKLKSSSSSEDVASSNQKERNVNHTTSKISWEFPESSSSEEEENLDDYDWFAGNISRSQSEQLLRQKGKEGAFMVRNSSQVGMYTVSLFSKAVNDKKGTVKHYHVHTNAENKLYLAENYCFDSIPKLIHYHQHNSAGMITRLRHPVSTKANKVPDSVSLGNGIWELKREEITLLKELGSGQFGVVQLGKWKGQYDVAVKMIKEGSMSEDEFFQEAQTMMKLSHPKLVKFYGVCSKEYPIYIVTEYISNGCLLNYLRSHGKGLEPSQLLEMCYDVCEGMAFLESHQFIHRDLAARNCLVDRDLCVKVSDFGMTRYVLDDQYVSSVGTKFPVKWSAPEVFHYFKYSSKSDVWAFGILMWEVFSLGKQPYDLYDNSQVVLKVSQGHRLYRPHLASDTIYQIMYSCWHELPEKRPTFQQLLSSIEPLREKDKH
As to conditions: read-out: %Inh BMX.

ADCK3, sequence (Q8NI60 163-647): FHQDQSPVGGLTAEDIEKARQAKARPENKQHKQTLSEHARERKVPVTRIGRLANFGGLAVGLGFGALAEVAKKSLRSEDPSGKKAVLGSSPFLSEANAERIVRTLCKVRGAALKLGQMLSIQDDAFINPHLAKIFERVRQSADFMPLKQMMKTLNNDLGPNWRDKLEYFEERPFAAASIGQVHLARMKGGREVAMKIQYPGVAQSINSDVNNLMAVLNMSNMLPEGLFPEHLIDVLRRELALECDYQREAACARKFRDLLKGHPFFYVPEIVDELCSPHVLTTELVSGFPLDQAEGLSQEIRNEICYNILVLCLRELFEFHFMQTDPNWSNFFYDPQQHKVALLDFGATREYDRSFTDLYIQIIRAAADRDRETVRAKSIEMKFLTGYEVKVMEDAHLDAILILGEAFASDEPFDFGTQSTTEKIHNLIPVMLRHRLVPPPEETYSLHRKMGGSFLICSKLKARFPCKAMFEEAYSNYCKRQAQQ
GRK4, sequence (P32298 whole entry): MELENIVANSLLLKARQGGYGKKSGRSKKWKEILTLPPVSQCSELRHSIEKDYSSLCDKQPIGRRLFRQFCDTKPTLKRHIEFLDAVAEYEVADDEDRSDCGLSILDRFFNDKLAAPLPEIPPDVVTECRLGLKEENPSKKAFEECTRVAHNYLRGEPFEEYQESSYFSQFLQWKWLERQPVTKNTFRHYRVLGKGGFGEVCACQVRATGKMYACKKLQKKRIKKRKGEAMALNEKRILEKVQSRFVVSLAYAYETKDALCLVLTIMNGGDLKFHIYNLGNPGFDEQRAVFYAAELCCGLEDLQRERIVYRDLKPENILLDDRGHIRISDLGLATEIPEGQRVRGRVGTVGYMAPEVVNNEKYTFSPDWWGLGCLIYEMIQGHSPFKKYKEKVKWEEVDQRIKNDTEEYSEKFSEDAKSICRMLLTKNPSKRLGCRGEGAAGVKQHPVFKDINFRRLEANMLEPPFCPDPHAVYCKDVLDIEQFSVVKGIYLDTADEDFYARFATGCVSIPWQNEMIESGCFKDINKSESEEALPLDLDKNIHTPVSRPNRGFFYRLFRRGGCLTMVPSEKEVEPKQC

Regarding `O=c1cc(N2CCOCC2)nc2n(Cc3cccc(Cl)c3Cl)c(C3CC3)nn12` [UNC10225469A], the inhibition at 1 µM in test [1] came to 0%; in test [2], 0%; in test [3], 0%; in test [4] it was 11%; in test [5], 19%.
Consider `COc1cccc(OC)c1C(=O)Nc1cccc(-c2nn3ccccc3c2-c2ccnc(Nc3cccc(F)c3)n2)c1` [UNC10225310A], for which the inhibition at 1 µM in test [1] turned out to be 16%; in test [2], 6%; in test [3] it was 0%; in test [4], 0%; in test [5] it was 21%.
`CS(=O)(=O)Cc1ccc(Nc2nccc(-c3c(-c4cccc(NC(=O)C5CCCCC5)c4)nn4ncccc34)n2)cc1` [UNC10225159A]: the inhibition at 1 µM stood at 0% in test [1]; 5% in test [2]; 0% in test [3]; 24% in test [4]; 37% in test [5].
Consider `Cc1ccc(NC(=O)Nc2cccc(C(F)(F)F)c2)cc1` [UNC10225187A], for which the inhibition at 1 µM in test [1] turned out to be 0%; in test [2] it was 0%; in test [3], 0%; in test [4], 5%; in test [5], 0%.
Regarding `Cn1cc(-c2cnc(N)c3c(-c4ccc5c(c4)CCN5C(=O)Cc4ccccc4)csc23)cn1` [UNC10225012A], the inhibition at 1 µM in test [1] turned out to be 0%; in test [2], 0%; in test [3] it was 7%; in test [4] it was 7%; in test [5] it was 57%.
